Earlier results on one substance are cited in patent US12279614B2, “Photo-polymerizable, universal antimicrobial coating to produce high-performing, multi-functional face masks” (The Governors of the University of Alberta, priority 2022, dated 2025).

For the data set, the system named is Human Adenovirus Type 8. Particulars: incubation time 1 hr.

Turning to Benzalkonium chloride, the Inactivation efficiency is 1.01 log reduction.
